Test results: patent publication US12479800B2, “Phenylpropionamide compound and use thereof” (MEDSHINE DISCOVERY INC., priority 2020, dated 2025)
Where a SMILES comes first, the peptide text is derived from it. [ ]: non-standard residue; d: D form. The star is where a group is joined. Gly(N-(2R-Ph-propyl)) = C[C@@H](CNCC(=O)O)c1ccccc1; Piperidin1yl(4-NH2,4-COOH) = NC1(C(=O)O)CCN(*)CC1; dGly(cPent) = N[C@@H](C(=O)O)C1CCCC1; dAla(cPr) = N[C@H](CC1CC1)C(=O)O; X1 = CC(=O)N1CC2(CCN(*)CC2)C1

Assays:
Human hepatocyte = experiment: Metabolic stability (HMS) study in human hepatocytes; type: in vitro ADME; conditions: 0.5×10^6 cells/mL
Description: (§1) To test the metabolic stability of the test compound in human and rat hepatocytes.
(§2) 2.1 Test Compound (10 mM), Reference Substance: 7-Ethoxycoumarin, 30 mM, 7-Hydroxycoumarin, Reference Substance, 30 mM
(§3) Culture medium for thawing: Williams' E medium containing 5% fetal bovine serum and 30% Percoll solution and other auxiliary materials.
(§4) Culture medium for incubation: Williams' E medium (without phenol red), wherein containing 2 mM L-glutamine and 25 mM of hydroxyethyl piperazine ethanesulfonic acid.
(§5) Termination solution: acetonitrile containing 200 ng/mL of tolbutamide and labetalol as internal standard.
(§6) Dilution solution: ultrapure water. […]
(§7) The elimination rate constant k of the test compound and the control compound in hepatocyte was calculated by plotting the logarithm of the time to the residual rate, and the half-life (T1/2) and the intrinsic clearance rate in vitro (CLint) were obtained by the elimination rate constant k with the following formula: T1/2=0.693/k CLint(hep)=k/number of cells per mL(million cells/mL) CLint(liver)=CLint(hep)×ratio of liver weight to body weight×number of hepatocytes per gram of liver […]

[1] = Plasma protein binding rate (PPB) test, SD rat plasma; type: in vitro ADME; conditions: 2 μM, equilibrium dialysis 4 hours 37° C.
Description: (§8) To test the protein binding rate of the test compound in human and SD rat plasma.
(§9) The frozen plasma was thawed in flowing cold tap water, and then the plasma was centrifuged at 3220×g for 5 minutes to remove the suspension and precipitate. The pH of plasma was determined, and only the plasma with a pH between 7.0 to 8.0 could be used for experiments.
(§10) The experiment was used a 96-well balanced dialysis plate (HTDialysis device) to determine the plasma protein binding rate of the test compound and control compound. Before the experiment was started, the dialysis membrane was pretreated according to the description, and then the dialysis device was assembled as required. The blank plasma of human and SD rats (plasma purchased from BioreclamationIVT) was taken, and the test compound working solution or the warfarin working solution was added to make the final concentration of the test compound and warfarin in the plasma samples both 2 μM. The sample was mixed well. […] The unbound rate (Unbound) %, bound rate (Bound) % and recovery rate (Recovery) % of the compound were calculated by the following formula: % Unbound=100*FC/TC, % Bound=100−% Unbound, % Recovery=100*(FC+TC)/T0. […]

Rat hepatocyte = experiment: Metabolic stability (HMS) study in rat hepatocytes; type: in vitro ADME; conditions: 0.5×10^6 cells/mL
Description: as §1, §2, §3, §4, §5, §6, §7

[2] = Plasma protein binding rate (PPB) test, human plasma; type: in vitro ADME; conditions: 2 μM, equilibrium dialysis 4 hours 37° C.
Description: as §8, §9, §10

Kappa receptor = Kappa receptor (Homo sapiens (Human), UniProt P41145); experiment: cAMP test of Kappa receptor; type: cell-based; conditions: KOR cAMP cells; read-out: EC50 value of the compound to Kappa receptor
Description: Experimental Embodiment 1: cAMP Test of Kappa Receptor
Experimental buffer: 1*HBSS (+/+) (SIGMA #H1387)+20 mM HEPES (LONZA #17-737E)
Stimulation buffer (STB): 200 μM IBMX (SIGMA #I7018) and 3 μM NKH477 (SIGMA #N3290) experimental buffer
Experimental Methods and Steps
The compound powder was dissolved with DMSO (Amresco #0231), and the concentration of the compound solution was 10 mM. 1 μL of the test compound was taken, and 49 μL of DMSO was added thereto, and the mixture was diluted to 200 μM of solution.
A LDV 384-well plate was taken, and the compound solution diluted in the previous step was respectively added to wells A1 to H1; a pre-prepared 200 μM of U-50488 (Tocris #0495/25) was taken and added to well P1; 10.8 μL of DMSO was added to each well of A2 to A11, […], and P2 to P11, respectively, and the mixture was centrifuged at 1000 rpm for 30 seconds.
Continuous gradient dilutions of compounds were performed with bravo, and the first column of LDV plate prepared in the previous step was taken as the initial concentration column, and 5 μL was sucked into the next column each time and blown and mixed evenly.
After the dilution was completed, 10 μL 200 μM of U-50488 was added to well A24 as HPE (100% inhibition rate activity), and 10 μL of DMSO was added to well P24 as ZPE (0% inhibition rate activity), and the mixture was centrifuged at 1000 rpm for 30 seconds.
According to the experimental layout, the compound solution diluted in the previous step was transferred to the experimental plate Corning 3824 with Echo 550, 50 nL per well.
A set of frozen KOR cAMP cells was taken from the −80° C. refrigerator and thawed in a 37° C.-water bath.
After thawing, the cells in the tube were aspirated into a 15 mL centrifuge tube, and 4 mL of experimental buffer was added thereto. […]
Cell density was counted and adjusted on a cell counter to 1.5*10^6 cells/mL. […]
Experimental plates were read with Envision.

[3] = In vivo pharmacokinetic study in SD rats; parameters: species or system Sprague Dawley rats; conditions: intravenous 3 mg/kg
Description: To test the in vivo pharmacokinetics of test compound in SD rats
Sprague Dawley rats (male, 6 to 10 weeks old, purchased from Beijing Vital River Laboratory Animal Co., LTD)
Compound 1 was mixed with normal saline to prepare a clear solution of 1 mg/mL for injection group administration, filtered by microporous membranes and ready for use. The test compound was administered intravenously at 3 mg/kg, and the solvent for intravenous administration was normal saline. Plasma samples were collected at 0, 0.083, 0.25, 0.5, 1.0, 2.0, 4.0, 8.0 and 24 hours after administration. The plasma concentration was determined by LC-MS/MS method, and the relevant pharmacokinetic parameters were calculated by non-compartmental model linear logarithmic trapezoidal method using WinNonlin™ Version 6.3 (Pharsight, Mountain View, CA) pharmacokinetic software.

| Compound | Intrinsic clearance rate in liver (Human hepatocyte) | Unbound rate in plasma [1] | Intrinsic clearance rate in liver (Rat hepatocyte) | Unbound rate in plasma [2] | EC50 (Kappa receptor) | AUC0-last [3] | Cl (total clearance rate) [3] | T1/2 (elimination half-life) [3] | Vdss (steady-state apparent volume of distribution) [3] | C0 ([3]; read-out: C0 (initial concentration)) |
| --- | --- | --- | --- | --- | --- | --- | --- | --- | --- | --- |
| C[C@@H](CNCC(=O)N[C@H](Cc1ccccc1)C(=O)N[C@H](CC1CC1)C(=O)N[C@H](CCCCN)C(=O)N1CCC(N)(C(=O)O)CC1)c1ccccc1 [Compound 1] (H-[Gly(N-(2R-Ph-propyl))][dF][dAla(cPr)][dK]-{Piperidin1yl(4-NH2,4-COOH)}) | <17.8 mL/min/kg | 44.7% | <29.9 mL/min/kg | 55.2% | 0.085 nM | 7.2 µM·h | 9.90 mL/min/kg | 1.33 h | 0.29 L/kg | 17.6 µM |
| C[C@@H](CNCC(=O)N[C@H](Cc1ccccc1)C(=O)N[C@@H](C(=O)N[C@H](CCCCN)C(=O)N1CCC(N)(C(=O)O)CC1)C1CCCC1)c1ccccc1 [Compound 2] (H-[Gly(N-(2R-Ph-propyl))][dF][dGly(cPent)][dK]-{Piperidin1yl(4-NH2,4-COOH)}) |  |  |  |  | 0.311 nM |  |  |  |  |  |
| CC(=O)N1CC2(CCN(C(=O)[C@@H](CCCCN)NC(=O)[C@@H](CC3CC3)NC(=O)[C@@H](Cc3ccccc3)NC(=O)CNC[C@H](C)c3ccccc3)CC2)C1 [Compound 4] (H-[Gly(N-(2R-Ph-propyl))][dF][dAla(cPr)][dK]-X1) |  |  |  |  | 0.034 nM |  |  |  |  |  |
